Laboratory results published in patent publication US4287206A, “Halogen derivatives of 8-hydroxycarboxylic acids; the processes for their preparation and medicaments in which they are present” (priority 1978, dated 1981).
Like-named read-outs stand apart in the source and are kept apart here.

How the values were obtained:
mice [1] = assay: Anti-oxotremorine activity in mice (hypothermia induced by oxotremorine); assay type: in vivo; settings: oxotremorine 0.5 mg.kg^-1 i.p.
Procedure: Anti-oxotremorine activity in mice
At time 0, the mice receive oxotremorine (0.5 mg.kg^-1) by intraperitoneal administration; after 30 minutes, either distilled water or the medicament according to the invention, obtained in accordance with Example I, is administered to the mice intraperitoneally or orally.
The mice are then observed and the trembling is rated from 0 to 3 as a function of its intensity, every 10 minutes for 30 minutes. Moreover, the existence of peripheral symptoms (tears, hypersialosis and defections) is observed for 2 hours, in the presence or absence of trembling. The rectal temperature is measured every 30 minutes for 2 hours, after administration of oxotremorine.

mice [2] = assay: Anti-apomorphine activity in mice (hypothermia caused by apomorphine); assay type: in vivo
mice [3] = assay: Sleep induced by pentobarbital in mice; assay type: in vivo; settings: pentobarbital 50 mg.kg^-1 i.p.
Procedure: (b) Absence of modification of the effects of pentobarbital
At time 0, the mice receive, by intraperitoneal or oral administration, distilled water or the medicament according to the invention, obtained in accordance with Example I. After 30 minutes, they receive pentobarbital (50 mg.kg^-1) by intraperitoneal administration.

[4] = Determination of the acute toxicity to mice (BEHRENS and KARBER); settings: mouse, in vivo
Procedure: All the experiments reported below were carried out on male rats having a weight of between 170 and 220 g (Wistar AF strain) and male mice having a weight of between 18 and 23 g (Swiss NMRI strain), unless otherwise stated in the following text.
Determination of the acute toxicity to mice
Method used: BEHRENS and KARBER

CC1CC(c2ccc(Cl)cc2)C(c2ccccc2)C(=O)O1 (stereo not drawn) [Example I, trans-4-(4'-chlorophenyl)-6-methyl-3-phenyl-3,4,5,6-tetrahydropyrone-2]
Rectal temperatures °C. (mice [1]; 1 mg/kg oral, 30 min): 29.8 ± 0.40 °C
Rectal temperatures °C. (mice [1]; 1 mg/kg oral, 60 min): 27.8 ± 0.65 °C
Rectal temperatures °C. (mice [1]; 1 mg/kg oral, 90 min): 27.8 ± 1.36 °C
Rectal temperatures °C. (mice [1]; 1 mg/kg oral, 120 min): 28.0 ± 1.65 °C
Rectal temperatures °C. (mice [1]; 2 mg/kg intraperitoneal, 30 min): 30.8 ± 0.43 °C
Rectal temperatures °C. (mice [1]; 2 mg/kg intraperitoneal, 60 min): 29.1 ± 0.46 °C
Rectal temperatures °C. (mice [1]; 2 mg/kg intraperitoneal, 90 min): 29.4 ± 0.52 °C
Rectal temperatures °C. (mice [1]; 2 mg/kg intraperitoneal, 120 min): 29.9 ± 0.77 °C
Rectal temperatures °C. (mice [1]; 2 mg/kg oral, 30 min): 31.5 ± 0.43 °C
Rectal temperatures °C. (mice [1]; 2 mg/kg oral, 60 min): 31.0 ± 0.71 °C
Rectal temperatures °C. (mice [1]; 2 mg/kg oral, 90 min): 31.2 ± 0.86 °C
Rectal temperatures °C. (mice [1]; 2 mg/kg oral, 120 min): 31.9 ± 1.14 °C
Rectal temperatures °C. (mice [1]; 4 mg/kg intraperitoneal, 30 min): 30.2 ± 0.36 °C
Rectal temperatures °C. (mice [1]; 4 mg/kg intraperitoneal, 60 min): 31.8 ± 0.42 °C
Rectal temperatures °C. (mice [1]; 4 mg/kg intraperitoneal, 90 min): 33.5 ± 0.49 °C
Rectal temperatures °C. (mice [1]; 4 mg/kg intraperitoneal, 120 min): 35.7 ± 0.40 °C
Rectal temperatures °C. (mice [1]; 4 mg/kg oral, 30 min): 31.8 ± 0.38 °C
Rectal temperatures °C. (mice [1]; 4 mg/kg oral, 60 min): 31.0 ± 0.34 °C
Rectal temperatures °C. (mice [1]; 4 mg/kg oral, 90 min): 31.6 ± 0.91 °C
Rectal temperatures °C. (mice [1]; 4 mg/kg oral, 120 min): 32.4 ± 0.89 °C
Rectal temperatures °C. (mice [1]; 8 mg/kg intraperitoneal, 30 min): 32.1 ± 0.52 °C
Rectal temperatures °C. (mice [1]; 8 mg/kg intraperitoneal, 60 min): 31.3 ± 0.52 °C
Rectal temperatures °C. (mice [1]; 8 mg/kg intraperitoneal, 90 min): 32.2 ± 0.61 °C
Rectal temperatures °C. (mice [1]; 8 mg/kg intraperitoneal, 120 min): 33.8 ± 0.91 °C
Rectal temperatures °C. (mice [1]; 8 mg/kg oral, 30 min): 32.6 ± 0.32 °C
Rectal temperatures °C. (mice [1]; 8 mg/kg oral, 60 min): 32.4 ± 0.29 °C
Rectal temperatures °C. (mice [1]; 8 mg/kg oral, 90 min): 32.9 ± 0.38 °C
Rectal temperatures °C. (mice [1]; 8 mg/kg oral, 120 min): 33.8 ± 0.56 °C
Rectal temperatures °C. (mice [1]; 16 mg/kg intraperitoneal, 30 min): 32.9 ± 0.46 °C
Rectal temperatures °C. (mice [1]; 16 mg/kg intraperitoneal, 60 min): 32.0 ± 0.65 °C
Rectal temperatures °C. (mice [1]; 16 mg/kg intraperitoneal, 90 min): 32.8 ± 0.60 °C
Rectal temperatures °C. (mice [1]; 16 mg/kg intraperitoneal, 120 min): 35.9 ± 0.81 °C
Rectal temperatures °C. (mice [1]; 16 mg/kg oral, 30 min): 31.9 ± 0.53 °C
Rectal temperatures °C. (mice [1]; 16 mg/kg oral, 60 min): 31.9 ± 0.49 °C
Rectal temperatures °C. (mice [1]; 16 mg/kg oral, 90 min): 32.8 ± 0.70 °C
Rectal temperatures °C. (mice [1]; 16 mg/kg oral, 120 min): 33.6 ± 0.97 °C
Rectal temperatures °C. (mice [1]; 32 mg/kg intraperitoneal, 30 min): 32.0 ± 0.70 °C
Rectal temperatures °C. (mice [1]; 32 mg/kg intraperitoneal, 60 min): 31.2 ± 0.73 °C
Rectal temperatures °C. (mice [1]; 32 mg/kg intraperitoneal, 90 min): 32.2 ± 0.85 °C
Rectal temperatures °C. (mice [1]; 32 mg/kg intraperitoneal, 120 min): 33.2 ± 1.2 °C
Rectal temperatures °C. (mice [1]; 32 mg/kg oral, 30 min): 33.0 ± 0.60 °C
Rectal temperatures °C. (mice [1]; 32 mg/kg oral, 60 min): 32.7 ± 0.63 °C
Rectal temperatures °C. (mice [1]; 32 mg/kg oral, 90 min): 32.8 ± 0.62 °C
Rectal temperatures °C. (mice [1]; 32 mg/kg oral, 120 min): 33.7 ± 0.95 °C
Rectal temperatures °C. (mice [1]; 64 mg/kg intraperitoneal, 30 min): 34.0 ± 0.87 °C
Rectal temperatures °C. (mice [1]; 64 mg/kg intraperitoneal, 60 min): 33.0 ± 1.2 °C
Rectal temperatures °C. (mice [1]; 64 mg/kg intraperitoneal, 90 min): 33.7 ± 1.15 °C
Rectal temperatures °C. (mice [1]; 64 mg/kg intraperitoneal, 120 min): 34.5 ± 1.0 °C
Rectal temperatures °C. (mice [1]; 64 mg/kg oral, 30 min): 32.2 ± 0.32 °C
Rectal temperatures °C. (mice [1]; 64 mg/kg oral, 60 min): 31.7 ± 0.52 °C
Rectal temperatures °C. (mice [1]; 64 mg/kg oral, 90 min): 32.8 ± 0.73 °C
Rectal temperatures °C. (mice [1]; 64 mg/kg oral, 120 min): 34.1 ± 0.62 °C
Rectal temperatures °C. (mice [1]; 128 mg/kg oral, 30 min): 34.8 ± 0.80 °C
Rectal temperatures °C. (mice [1]; 128 mg/kg oral, 60 min): 34.9 ± 0.59 °C
Rectal temperatures °C. (mice [1]; 128 mg/kg oral, 90 min): 36.2 ± 0.82 °C
Rectal temperatures °C. (mice [1]; 128 mg/kg oral, 120 min): 37.1 ± 0.77 °C
Rectal temperatures °C. (mice [1]; 256 mg/kg oral, 30 min): 32.4 ± 0.63 °C
Rectal temperatures °C. (mice [1]; 256 mg/kg oral, 60 min): 31.3 ± 0.73 °C
Rectal temperatures °C. (mice [1]; 256 mg/kg oral, 90 min): 32.4 ± 1.07 °C
Rectal temperatures °C. (mice [1]; 256 mg/kg oral, 120 min): 33.9 ± 1.30 °C
Rectal temperatures, results in % inhibition of the hypothermia (mice [2]; 0.5 mg/kg intraperitoneal, apomorphine 1 mg.kg^-1 subcutaneously): 7%
Rectal temperatures, results in % inhibition of the hypothermia (mice [2]; 0.5 mg/kg intraperitoneal, apomorphine 16 mg.kg^-1 subcutaneously): -5%
Rectal temperatures, results in % inhibition of the hypothermia (mice [2]; 2 mg/kg intraperitoneal, apomorphine 1 mg.kg^-1 subcutaneously): 3%
Rectal temperatures, results in % inhibition of the hypothermia (mice [2]; 2 mg/kg intraperitoneal, apomorphine 16 mg.kg^-1 subcutaneously): 45%
Rectal temperatures, results in % inhibition of the hypothermia (mice [2]; 4 mg/kg intraperitoneal, apomorphine 1 mg.kg^-1 subcutaneously): -13%
Rectal temperatures, results in % inhibition of the hypothermia (mice [2]; 4 mg/kg intraperitoneal, apomorphine 16 mg.kg^-1 subcutaneously): 39%
Rectal temperatures, results in % inhibition of the hypothermia (mice [2]; 4 mg/kg oral, apomorphine 1 mg.kg^-1 subcutaneously): 0%
Rectal temperatures, results in % inhibition of the hypothermia (mice [2]; 4 mg/kg oral, apomorphine 16 mg.kg^-1 subcutaneously): 31%
Rectal temperatures, results in % inhibition of the hypothermia (mice [2]; 8 mg/kg oral, apomorphine 1 mg.kg^-1 subcutaneously): -2%
Rectal temperatures, results in % inhibition of the hypothermia (mice [2]; 8 mg/kg oral, apomorphine 16 mg.kg^-1 subcutaneously): 40%
Rectal temperatures, results in % inhibition of the hypothermia (mice [2]; 16 mg/kg intraperitoneal, apomorphine 1 mg.kg^-1 subcutaneously): 10%
Rectal temperatures, results in % inhibition of the hypothermia (mice [2]; 16 mg/kg intraperitoneal, apomorphine 16 mg.kg^-1 subcutaneously): 51%
Rectal temperatures, results in % inhibition of the hypothermia (mice [2]; 16 mg/kg oral, apomorphine 1 mg.kg^-1 subcutaneously): 0.5%
Rectal temperatures, results in % inhibition of the hypothermia (mice [2]; 16 mg/kg oral, apomorphine 16 mg.kg^-1 subcutaneously): 42%
Rectal temperatures, results in % inhibition of the hypothermia (mice [2]; 32 mg/kg oral, apomorphine 1 mg.kg^-1 subcutaneously): 45%
Rectal temperatures, results in % inhibition of the hypothermia (mice [2]; 32 mg/kg oral, apomorphine 16 mg.kg^-1 subcutaneously): 77%
Rectal temperatures, results in % inhibition of the hypothermia (mice [2]; 64 mg/kg oral, apomorphine 1 mg.kg^-1 subcutaneously): 51%
Rectal temperatures, results in % inhibition of the hypothermia (mice [2]; 64 mg/kg oral, apomorphine 16 mg.kg^-1 subcutaneously): 86%
Rectal temperatures, results in % inhibition of the hypothermia (mice [2]; 128 mg/kg oral, apomorphine 1 mg.kg^-1 subcutaneously): 68%
Rectal temperatures, results in % inhibition of the hypothermia (mice [2]; 128 mg/kg oral, apomorphine 16 mg.kg^-1 subcutaneously): 81%
Rectal temperatures, results in % inhibition of the hypothermia (mice [2]; 256 mg/kg oral, apomorphine 1 mg.kg^-1 subcutaneously): 89%
Rectal temperatures, results in % inhibition of the hypothermia (mice [2]; 256 mg/kg oral, apomorphine 16 mg.kg^-1 subcutaneously): 116%
% of mice which have slept (mice [3]; 2 mg/kg intraperitoneal): 100%
Time in minutes for induction of sleep (mice [3]; 2 mg/kg intraperitoneal): 4 min
Time in minutes of sleep (mice [3]; 2 mg/kg intraperitoneal): 47 ± 7 min
% of mice which have slept (mice [3]; 2 mg/kg oral): 100%
Time in minutes for induction of sleep (mice [3]; 2 mg/kg oral): 4 min
Time in minutes of sleep (mice [3]; 2 mg/kg oral): 60 ± 8 min
% of mice which have slept (mice [3]; 4 mg/kg intraperitoneal): 100%
Time in minutes for induction of sleep (mice [3]; 4 mg/kg intraperitoneal): 4 min
Time in minutes of sleep (mice [3]; 4 mg/kg intraperitoneal): 55 ± 8 min
% of mice which have slept (mice [3]; 4 mg/kg oral): 100%
Time in minutes for induction of sleep (mice [3]; 4 mg/kg oral): 4 min
Time in minutes of sleep (mice [3]; 4 mg/kg oral): 45 ± 4 min
% of mice which have slept (mice [3]; 8 mg/kg intraperitoneal): 100%
Time in minutes for induction of sleep (mice [3]; 8 mg/kg intraperitoneal): 4 min
Time in minutes of sleep (mice [3]; 8 mg/kg intraperitoneal): 36 ± 3 min
% of mice which have slept (mice [3]; 8 mg/kg oral): 100%
Time in minutes for induction of sleep (mice [3]; 8 mg/kg oral): 4 min
Time in minutes of sleep (mice [3]; 8 mg/kg oral): 57 ± 10 min
% of mice which have slept (mice [3]; 16 mg/kg intraperitoneal): 83%
Time in minutes for induction of sleep (mice [3]; 16 mg/kg intraperitoneal): 4.5 min
Time in minutes of sleep (mice [3]; 16 mg/kg intraperitoneal): 26 ± 7 min
% of mice which have slept (mice [3]; 16 mg/kg oral): 100%
Time in minutes for induction of sleep (mice [3]; 16 mg/kg oral): 4 min
Time in minutes of sleep (mice [3]; 16 mg/kg oral): 41 ± 7 min
% of mice which have slept (mice [3]; 32 mg/kg intraperitoneal): 92%
Time in minutes for induction of sleep (mice [3]; 32 mg/kg intraperitoneal): 4.5 min
Time in minutes of sleep (mice [3]; 32 mg/kg intraperitoneal): 27 ± 3 min
% of mice which have slept (mice [3]; 32 mg/kg oral): 100%
Time in minutes for induction of sleep (mice [3]; 32 mg/kg oral): 4 min
Time in minutes of sleep (mice [3]; 32 mg/kg oral): 49 ± 4 min
% of mice which have slept (mice [3]; 64 mg/kg intraperitoneal): 100%
Time in minutes for induction of sleep (mice [3]; 64 mg/kg intraperitoneal): 4 min
Time in minutes of sleep (mice [3]; 64 mg/kg intraperitoneal): 30 ± 9 min
% of mice which have slept (mice [3]; 64 mg/kg oral): 100%
Time in minutes for induction of sleep (mice [3]; 64 mg/kg oral): 5 min
Time in minutes of sleep (mice [3]; 64 mg/kg oral): 29 ± 8 min
% of mice which have slept (mice [3]; 128 mg/kg intraperitoneal): 83%
Time in minutes for induction of sleep (mice [3]; 128 mg/kg intraperitoneal): 6 min
Time in minutes of sleep (mice [3]; 128 mg/kg intraperitoneal): 25 ± 5 min
% of mice which have slept (mice [3]; 128 mg/kg oral): 100%
Time in minutes for induction of sleep (mice [3]; 128 mg/kg oral): 4 min
Time in minutes of sleep (mice [3]; 128 mg/kg oral): 38 ± 7 min
LD50 ([4]; ip, intraperitoneal, read-out: LD50 (intraperitoneal administration)): 520 mg/kg
LD50 ([4]; oral, read-out: LD50 (oral administration)): 1050 mg/kg
